This is an account of results in patent US7253176B1, “Immunosuppressive effects of 8-substituted xanthine derivatives” (K.U. Leuven Research & Development, priority 2000, dated 2007).

Some results are limits rather than exact numbers.

The IC50 is the concentration that gives 50% inhibition. For orientation: melting point means the temperature of the solid-liquid transition.

Data set [1] concerns Peripheral blood mononuclear cells (PBMC). Put plainly: Mixed lymphocyte reaction (MLR), [3H]-thymidine incorporation. It is filed as cell-based, human. From the text: (§1) Various models may be used for testing an immunosuppressive effect. In vivo, for example, different transplantation models are available. They are strongly influenced by different immunogenicities, depending on the donor and recipient species used and depending on the nature of the transplanted organ. The survival time of transplanted organs can thus be used to measure the suppression of the immune response. In vitro, there exist also various models. The most used are lymphocyte activation tests. Usually activation is measured via lymphocyte proliferation. Inhibition of proliferation thus always means immunosuppression under the experimental conditions applied. There exist different stimuli for lymphocyte activation: • coculture of lymphocytes of […] (MLR=mixed lymphocyte reaction): lymphocytes expressing different minor and major antigens of the HLA-DR type (=allogens) activate each other non-specifically. • CD3 assay: here there is an activation of the T-lymphocytes via an exogenously added antibody (OKT3). This antibody reacts against the CD3 molecule located on the lymphocyte membrane. This molecule has a […]. […] This molecule is also located on the lymphocyte membrane, and delivers strong costimulatory signals. […] Reagents
Mixed Lymphocyte Reaction
Peripheral blood mononuclear cells (PBMC) were isolated from heparinized peripheral blood by density gradient centrifugation over Lymphoprep (Nycomed, Maorstua, Norway). Allogeneic PBMC or EBV-transformed human B cells [RPMI1788 (ATCC name CCL156)] which strongly express B7-1 and B7-2 were used as stimulator calls after irradiation with 30 Gy. MLR was performed in triplicate wells. After 5 days incubation at 37° C., 1 μCi [^3H]-thymidine was added to each cup. After a further 16 hours incubation, cells were harvested and counted in a β-counter.
The percent suppression of proliferation by drugs was counted using the formula: […]
For orientation: Uptake of a labelled nucleoside into DNA is a usual measure of proliferation.

Data set [2] has as its system Highly purified T cells. As to the kind of experiment: T cell proliferation induced by anti-CD3 mAb+PMA (BrdU). It is filed as cell-based, human. The conditions noted are these: read-out: IC50 aCD3. From the text:
T cells were purified by removing non-T cells. Briefly, monocytes were removed by cold agglutination. The resulting lymphoid cells were further purified by a cell enrichment immunocolumn [Cellect Human T (Biotex, Edmonton, Alberta, Canada)] by a process of negative selection.
(§2) Measurements of T Cell Proliferations Induced by Anti-CD3 mAB+PMA or Anti-CD28 mAb+PMA
(§3) Highly purified T cells (10^6/ml) were stimulated by immobilized anti-CD3 or anti-CD28 mAb in the presence of PMA. Anti-CD3 mAb (CLB-CD3; CLB, Amsterdam, The Netherlands) were fixed on the 96-microwell plates by incubating the wells with 50 μl of mAb solution […] 50 μl (1/650 dilution in culture medium) was added directly to the wells. Further, 20 μl PMA (Sigma, St. Louis, Mo., USA) solution (final concentration: 0.5 ng/ml) was added. Subsequently, 20 μl of immunosuppressants were added by serial dilution in triplicate wells. Finally 100 μl of the T cell suspension (10^6/ml) was added. After 48-hour incubation at 37° C. in 5% CO2 20 μl BrdU (100 μM solution) (Cell Proliferation Elisa, Boehringer-Mannheim Belgium) was added to each well. After a further overnight incubation the T cell proliferation was measured using a calorimetric immunoassay for qualification of cell proliferation based on measurements of the incorporation of BrdU during DNA synthesis. The optical density (OD) was measured by a Behring EL311 place reader at 450 nm (reference wavelength: […]). The percent suppression of proliferation by drugs was counted using the formula: […]

Data set [3] relates to Highly purified T cells. Put plainly: T cell proliferation induced by anti-CD28 mAb+PMA (BrdU). In kind it is cell-based, human. The settings on record: read-out: IC50 aCD28.
Excerpt: as §1
T cells were purified by removing non-T cells. Briefly, monocytes were removed by cold agglutination. The resulting lymphoid cells were further purified by a cell enrichment immunocolumn [Cellect Human T (Biotex, Edmonton, Alberta, Canada)] by a process of negative selection. More than 95% of the B cells were removed with this procedure. After depletion, the resulting T cell preparation was highly purified explaining these cells could not be activated by PHA or rIL-2 alone at concentrations capable of stimulating RBMC prior to deletion.
as §2, §3

For data set [4], the system named is Con A induced proliferation of lymphocytes. Put plainly: Whole Blood Assay (WBA): Con A induced lymphoproliferation in blood of rats given test substances in vivo. Also on record: species or system R/A rats. The settings on record: orally 40 mg/kg/d 2x/d 2d, blood taken after 8 h, Con A 15 μg/ml. The protocol:
[formula] […] Whole Blood Assay (WBA): WBA is a lymphoproliferation assay performed in vitro but using lymphocytes present in whole blood, taken from animals that were previously given test substances in vivo.
Rats: inbred, male 6- to 8-weeks old R/A rats weighing ±200 g were used as recipients.
Drug administration: xanthine derivatives were dissolved in DMSO and further diluted with PBS. Products were given orally in different concentrations 2 times a day for 2 days. To perform the experiments, 6–8 hours after the last administration 1 ml of blood is taken by heart puncture after ether anesthesia and anticoagulated with 100 U/ml of preservative free heparine. […]
Heparinized whole blood was diluted (1:25) with complete RPMI medium and stimulated with 15 μg/ml of concanavalin A (Con A) in triplicate wells in 96-well microtiter plates at 37° C. and 5% CO2. After 96-h culture, proliferation was determined by measuring the incorporation (cpm) of [^3H]-thymidine.
The Con A induced proliferation of lymphocytes taken from rats receiving the test substances (exp) was compared with that from rats receiving only the solvent (con). The percent suppression was calculated as follows: […]

Setting [5] is: Homo sapiens, PBMC, lowest concentration giving 50% suppression of the MLR.
The mark [6] stands for this setting: Homo sapiens, T-cell, anti-CD3 mAb+PMA pathway.
[7] abbreviates: Homo sapiens, T-cell, anti-CD28 mAb+PMA pathway.
Where [8] appears, read: lowest concentration giving 50% suppression of the MLR.

`CC#Cn1c(=O)c2c(ncn2C)n(C#CC)c1=O` [Compound 4, 1,3-dipropynyl-7-methylxanthine]: the melting point came to 172 °C. In data set [1] (setting [5]), this compound gave an IC50 above 200 µM. In the data set on Highly purified T cells [2] (setting [6]), the half-inhibitory concentration (IC50) was found to be 90 µM. In addition, the half-maximal inhibitory concentration (IC50) with Highly purified T cells [3] (setting [7]) is above 200 µM.

As to `CC#Cn1c(=O)c2c(ncn2C#CC)n(C)c1=O` [Compound 2, 1,7-dipropynyl-3-methylxanthine], the melting point turned out to be 177 °C.

As to `CC#Cn1c(=O)c2c(ncn2C#CC)n(C#CC)c1=O` [Compound 5, 1,3,7-tripropynylxanthine], the melting point was 155 °C. For the same compound, the half-maximal inhibitory concentration (IC50) in data set [1] (setting [5]) was above 200 µM. Besides, the half-maximal inhibitory concentration (IC50) in the data set on Highly purified T cells [2] (setting [6]) amounted to 50 µM. Also, the concentration for half-maximal inhibition (IC50) in the data set on Highly purified T cells [3] (setting [7]) was above 200 µM.

Take `Cn1cnc2c1c(=O)n(CCCCC(=O)O)c(=O)n2C` [Compound 22, 1-(4-Carboxybutyl)-3,7-dimethylxanthine]: the melting point came to 195 °C. This compound also had a half-maximal inhibitory concentration (IC50) in data set [1] (setting [5]) above 200 µM. Besides, in the data set on Highly purified T cells [2] (setting [6]), the IC50 is above 200 µM. In addition, in the data set on Highly purified T cells [3] (setting [7]), the half-maximal inhibitory concentration (IC50) was above 200 µM.

As for “1,3-dipropyl-8-[4(diethylamino(propyl(amino-(sulfonyl))))fenyl]xanthine [Compound 11]”, the IC50 in data set [1] (setting [8]) was determined as 25 µM; with Highly purified T cells [2] (anti-CD3 mAb+PMA pathway), 40 µM; in the data set on Highly purified T cells [3] (anti-CD28 mAb+PMA pathway), 55 µM. Also, the “% suppresion” value in data set [4] was 33%.

For `CO[C@H]1C[C@@H]2CC[C@@H](C)[C@@](O)(O2)C(=O)C(=O)N2CCCC[C@H]2C(=O)O[C@H]([C@H](C)C[C@@H]2CC[C@@H](O)[C@H](OC)C2)CC(=O)[C@H](C)/C=C(\C)[C@@H](O)[C@@H](OC)C(=O)[C@H](C)C[C@H](C)/C=C/C=C/C=C/1C` [Rapamycin, reference compound], the IC50 was 0.001 µM in data set [1] (Homo sapiens, PBMC, immunosuppressants for comparison); 0.001 µM in the data set with Highly purified T cells [2] (Homo sapiens, T-cell, immunosuppressants for comparison, anti-CD3 mAb+PMA); 0.001 µM with Highly purified T cells [3] (Homo sapiens, T-cell, immunosuppressants for comparison, anti-CD28 mAb+PMA).

Take `CCCn1c(=O)c2[nH]c(-c3ccco3)nc2n(CCC)c1=O` [Compound 59]: the IC50 in data set [1] (setting [8]) was found to be 15 µM; in the data set on Highly purified T cells [2] (anti-CD3 mAb+PMA pathway) it was 155 µM; in the data set with Highly purified T cells [3] (anti-CD28 mAb+PMA pathway) it was 135 µM.

With `Cn1c(=O)c2c(ncn2C)n(CC(C)(C)C)c1=O` [Compound 68, 1,7-dimethyl-3-((tertbutyl)methyl)xanthine], the melting point came to 158 °C. Besides, in data set [1] (setting [5]), it took 75 µM to reach half-maximal inhibition (IC50). Moreover, the IC50 in the data set with Highly purified T cells [2] (setting [6]) was 130 µM. Also, in the data set with Highly purified T cells [3] (setting [7]), the IC50 was found to be 120 µM.

With `Cn1c(=O)c2[nH]c(-c3ccc(S(N)(=O)=O)cc3)nc2n(C)c1=O` [Compound 125], the half-inhibitory concentration (IC50) came to 160 µM in data set [1] (setting [8]), 150 µM with Highly purified T cells [2] (anti-CD3 mAb+PMA pathway) and 90 µM in the data set with Highly purified T cells [3] (anti-CD28 mAb+PMA pathway).

In the case of `CCCn1c(=O)c2c(nc(-c3ccc(-c4ccccc4)cc3)n2CCC)n(CCC)c1=O` [Compound 116, 1,3,7-tripropyl-8-(p-bifenyl)xanthine], the IC50 was 160 µM in data set [1] (setting [8]), 45 µM with Highly purified T cells [2] (anti-CD3 mAb+PMA pathway) and 40 µM in the data set on Highly purified T cells [3] (anti-CD28 mAb+PMA pathway).

On to `CCCn1c(=O)c2[nH]c(-c3ccc(OCC(=O)OCC)cc3)nc2n(CCC)c1=S` [Compound 29], for which the IC50 in data set [1] (setting [8]) was above 200 µM; with Highly purified T cells [2] (anti-CD3 mAb+PMA pathway), 150 µM; in the data set with Highly purified T cells [3] (anti-CD28 mAb+PMA pathway), 130 µM.

With “1,3,7-tripropyl-8-(4-chlorofenyl)xanthine [Compound 118]”, the values for the concentration for half-maximal inhibition (IC50) (in data set [1] (setting [8]); in the data set on Highly purified T cells [2] (anti-CD3 mAb+PMA pathway); in the data set with Highly purified T cells [3] (anti-CD28 mAb+PMA pathway)) were 15 µM, 15 µM and 20 µM, respectively.

In the case of `Cn1c(-c2ccc(S(N)(=O)=O)cc2)nc2c1c(=O)[nH]c(=O)n2C` [Compound 37], the results for the IC50 (in data set [1] (setting [8]); with Highly purified T cells [2] (anti-CD3 mAb+PMA pathway); in the data set on Highly purified T cells [3] (anti-CD28 mAb+PMA pathway)) were above 200 µM, 150 µM and 150 µM, respectively.

Take “1,3-dipropyl-8-[4(dimethylamino(ethyl(amino-(sulfonyl))))fenyl]xanthine [Compound 9]”: the IC50 in data set [1] (setting [8]) was 25 µM; in the data set with Highly purified T cells [2] (anti-CD3 mAb+PMA pathway) it was 40 µM; in the data set with Highly purified T cells [3] (anti-CD28 mAb+PMA pathway), 50 µM.

As to `CC(O)CCCCn1c(=O)c2c(ncn2C)n(C)c1=O` (stereo not drawn) [Compound 25], the 50% inhibitory concentration (IC50) in data set [1] (setting [8]) is above 200 µM; with Highly purified T cells [2] (anti-CD3 mAb+PMA pathway), 140 µM; in the data set on Highly purified T cells [3] (anti-CD28 mAb+PMA pathway), 160 µM.

For the compound `C=CCn1c(=O)c2c(nc(-c3ccc(-c4ccccc4)cc3)n2CC=C)n(CCC)c1=O` [Compound 117, 1,7-diallyl-3-propyl-8-(p-bifenyl)xanthine], the half-maximal inhibitory concentration (IC50) in data set [1] (setting [8]) amounted to 15 µM; in the data set with Highly purified T cells [2] (anti-CD3 mAb+PMA pathway), 30 µM; with Highly purified T cells [3] (anti-CD28 mAb+PMA pathway) it was 30 µM.

Consider `Cn1c(=O)c2[nH]c(C3CCCC3)nc2n(C)c1=S` [Compound 64], for which the IC50 (in data set [1] (setting [8]); in the data set with Highly purified T cells [2] (anti-CD3 mAb+PMA pathway); with Highly purified T cells [3] (anti-CD28 mAb+PMA pathway)) was above 200 µM throughout.
